The experiment concerns BDF1 mice, B16 melanoma ip, median survival T/C. In words: NCI In Vivo Anticancer Drug Screen. Data for tumor model B16 Melanoma (intraperitoneal) in B6D2F1 (BDF1) mice. The following applies: endpoint: median survival time, higher = longer survival. In a few lines:
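Compounds were tested in mice carrying transplantable tumors. Survival or tumor size was recorded, and each value is the treated-group measurement (T) divided by that of the vehicle-treated control group (C).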

The mark [1] stands for this setting: dose: 3.12 mg/kg/injection, schedule: Q01DX009 (ip), vehicle: saline.
[2] abbreviates: dose: 6.25 mg/kg/injection, schedule: Q01DX009 (ip), vehicle: saline.
[3] abbreviates: dose: 12.5 mg/kg/injection, schedule: Q01DX009 (ip), vehicle: saline.
The mark [4] stands for this setting: dose: 25.0 mg/kg/injection, schedule: Q01DX009 (ip), vehicle: saline.
Setting [5] is: dose: 50.0 mg/kg/injection, schedule: Q01DX009 (ip), vehicle: saline.
[6] abbreviates: dose: 12.5 mg/kg/injection, schedule: Q01DX009 (ip), vehicle: saline with Tween-80.
The mark [7] stands for this setting: dose: 25.0 mg/kg/injection, schedule: Q01DX009 (ip), vehicle: saline with Tween-80.
Where [8] appears, read: dose: 50.0 mg/kg/injection, schedule: Q01DX009 (ip), vehicle: saline with Tween-80.
The mark [9] stands for this setting: dose: 100.0 mg/kg/injection, schedule: Q01DX009 (ip), vehicle: saline with Tween-80.
Where [10] appears, read: dose: 12.5 mg/kg/injection, schedule: Q01DX009 (ip), vehicle: Klucel (hydroxypropylcellulose) (HPC).

“And” between values parts separate entries of the source, which are not always exact repeats. Identical values can stand only once. Toxic doses and inconclusive results are not listed. Numbered stars: 1 amine (or outer) side, 2 acyl side, 3 side chain; on linkers, the order of the positions; unused ones are H or OH. Bridge positions count the residues as written; N and C are the ends. Square brackets hold non-standard residues; d marks the D form. Peptide text beside a SMILES is read from it. I, II: the chains in the order shown. Actinocin(9to1) = Cc1c2oc3c(C)ccc(C(=O)[*:1])c3nc-2c(C(=O)[*:2])c(N)c1=O; NMeV = CN[CH](C(=O)O)C(C)C; Aze = O=C(O)[CH]1CCN1; Sar = CNCC(=O)O

Turning to `CNCC(C)CN1CCCCCc2ccccc21` (configuration not stated), the T/C by setting is: under setting [1], 102 % of control; under setting [2], 100 % of control; under setting [3], 95 % of control; under setting [4], 100 % of control; under setting [5], 113 % of control.
For `O=C(O)C(=O)O.O=C(O)C(=O)O.OO.OO.[Nb]`, the T/C runs as follows: (dose: 3.13 mg/kg/injection, schedule: Q01DX009 (ip), vehicle: water) 100 % of control; (dose: 6.25 mg/kg/injection, schedule: Q01DX009 (ip), vehicle: water) 101 % of control; (dose: 12.5 mg/kg/injection, schedule: Q01DX009 (ip), vehicle: water) 103 % of control; (dose: 25.0 mg/kg/injection, schedule: Q01DX009 (ip), vehicle: water) 112 % of control; (dose: 50.0 mg/kg/injection, schedule: Q01DX009 (ip), vehicle: water) 96 % of control.
As for `CCOC(=O)C1=C(C)O/C(=C/c2cccc(Cl)c2)C1=O`, the T/C reads like this: (dose: 6.25 mg/kg/injection, schedule: Q01DX009 (ip), vehicle: saline with Tween-80) 110 % of control; under setting [6], 113 % of control; under setting [7], 113 % of control; under setting [8], 86 % of control and 107 % of control; under setting [9], 97 % of control.
Consider `C=CCN(CC=C)P(=O)(N1CC1C)N1CC1C` (configuration not stated), for which the T/C runs as follows: (dose: 0.31 mg/kg/injection, schedule: Q01DX009 (ip), vehicle: saline) 109 % of control; (dose: 0.63 mg/kg/injection, schedule: Q01DX009 (ip), vehicle: saline) 112 % of control; (dose: 1.25 mg/kg/injection, schedule: Q01DX009 (ip), vehicle: saline) 122 % of control; (dose: 2.5 mg/kg/injection, schedule: Q01DX009 (ip), vehicle: saline) 99 % of control.
Turning to `COC(=O)[C@H]1[C@H]2C[C@@H]3c4[nH]c5cc(OC)ccc5c4CCN3C[C@H]2C[C@@H](OC(=O)c2cccc(N(C)C)c2)[C@@H]1OC`, the T/C by setting is: (dose: 0.39 mg/kg/injection, schedule: Q01DX009 (ip), vehicle: Klucel (hydroxypropylcellulose) (HPC)) 93 % of control; (dose: 0.78 mg/kg/injection, schedule: Q01DX009 (ip), vehicle: Klucel (hydroxypropylcellulose) (HPC)) 91 % of control and 94 % of control; (dose: 1.56 mg/kg/injection, schedule: Q01DX009 (ip), vehicle: Klucel (hydroxypropylcellulose) (HPC)) 97 % of control and 116 % of control; (dose: 3.12 mg/kg/injection, schedule: Q01DX009 (ip), vehicle: Klucel (hydroxypropylcellulose) (HPC)) 94 % of control.
As to `O=P(N1CCOCC1)(N1CC1)N1CC1`, the T/C was 115 % of control under setting [2] and 118 % of control under setting [3].
In the case of `C=C(C)CNC1=C(C)C(=O)C2=C(C1=O)[C@H](COC(N)=O)[C@]1(OC)[C@@H]3N[C@@H]3CN21`, the T/C by setting is: (dose: 0.13 mg/kg/injection, schedule: Q01DX001 (ip), vehicle: distilled water + Tween-80) 100 % of control; (dose: 0.25 mg/kg/injection, schedule: Q01DX001 (ip), vehicle: distilled water + Tween-80) 114 % of control; (dose: 1.5 mg/kg/injection, schedule: Q04DX003 (ip), vehicle: distilled water + Tween-80) 123 % of control; (dose: 2.0 mg/kg/injection, schedule: Q01DX001 (ip), vehicle: distilled water + Tween-80) 153 % of control; (dose: 3.0 mg/kg/injection, schedule: Q04DX003 (ip), vehicle: distilled water + Tween-80) 157 % of control; (dose: 4.0 mg/kg/injection, schedule: Q01DX001 (ip), vehicle: distilled water + Tween-80) 167 % of control. The T/C (dose: 6.0 mg/kg/injection, schedule: Q04DX003 (ip), vehicle: distilled water + Tween-80) is 215 % of control and the T/C (dose: 12.0 mg/kg/injection, schedule: Q04DX003 (ip), vehicle: distilled water + Tween-80) was 285 % of control.
Regarding `COc1ccc(/C=N/n2c3ccccc3c3ccccc32)cc1OCCCN(C)C`, the T/C was 120 % of control (dose: 0.39 mg/kg/injection, schedule: Q01DX009 (ip), vehicle: saline); 102 % of control (dose: 0.78 mg/kg/injection, schedule: Q01DX009 (ip), vehicle: saline); 112 % of control (dose: 1.56 mg/kg/injection, schedule: Q01DX009 (ip), vehicle: saline); 105 % of control under setting [1]; 105 % of control under setting [2]; 97 % of control under setting [10].
With `CCOc1ccc(-c2nc3ccc(-c4nc5ccc(N6CCN(C)CC6)cc5[nH]4)cc3[nH]2)cc1`, the T/C runs as follows: under setting [1], 106 % of control; under setting [2], 113 % of control; under setting [3], 112 % of control.
Regarding `CC(C)N=C(N)/N=C(\N)Nc1ccc2ccc3ccccc3c2c1`, the T/C was 112 % of control (dose: 6.25 mg/kg/injection, schedule: Q01DX009 (ip), vehicle: Klucel (hydroxypropylcellulose) (HPC)); 103 % of control under setting [10]; 87 % of control (dose: 25.0 mg/kg/injection, schedule: Q01DX009 (ip), vehicle: Klucel (hydroxypropylcellulose) (HPC)).
On to `C/C=C/CC(C/C=C/C)C1CC[N-]CC1.C/C=C/CC(C/C=C/C)C1CC[N-]CC1.[Cl][Pt+2]([Cl])([Cl])[Cl]`, for which the T/C runs as follows: (dose: 1.56 mg/kg/injection, schedule: Q01DX009 (ip), vehicle: other) 97 % of control; (dose: 3.13 mg/kg/injection, schedule: Q01DX009 (ip), vehicle: other) 97 % of control; (dose: 6.25 mg/kg/injection, schedule: Q01DX009 (ip), vehicle: other) 100 % of control; (dose: 12.5 mg/kg/injection, schedule: Q01DX009 (ip), vehicle: other) 97 % of control; (dose: 25.0 mg/kg/injection, schedule: Q01DX009 (ip), vehicle: other) 96 % of control.
Consider `O=C1C=CC(n2cc(F)c(=O)[nH]c2=O)O1` (configuration not stated), for which the T/C reads like this: under setting [2], 97 % of control; under setting [3], 95 % of control; under setting [4], 96 % of control; under setting [5], 107 % of control; (dose: 100.0 mg/kg/injection, schedule: Q01DX009 (ip), vehicle: saline) 97 % of control.
On to `COC1CC(CC2CCC(C)C(C(C)C(=O)O)O2)OC2(OC(C)(C3CCC(C)(C4OC(C5OC(O)(CO)C(C)CC5C)CC4C)O3)CC2C)C1C` (configuration not stated), for which the T/C was 102 % of control (dose: 0.31 mg/kg/injection, schedule: Q01DX009 (ip), vehicle: Klucel (hydroxypropylcellulose) (HPC)); 89 % of control (dose: 0.63 mg/kg/injection, schedule: Q01DX009 (ip), vehicle: Klucel (hydroxypropylcellulose) (HPC)); 92 % of control (dose: 1.25 mg/kg/injection, schedule: Q01DX009 (ip), vehicle: Klucel (hydroxypropylcellulose) (HPC)); 92 % of control (dose: 2.5 mg/kg/injection, schedule: Q01DX009 (ip), vehicle: Klucel (hydroxypropylcellulose) (HPC)).
As to `Cc1c2oc3c(C)ccc(C(=O)NC4C(=O)NC(C(C)C)C(=O)N5CCC5C(=O)N(C)CC(=O)N(C)C(C(C)C)C(=O)OC4C)c3nc-2c(C(=O)NC2C(=O)NC(C(C)C)C(=O)N3CCC3C(=O)N(C)CC(=O)N(C)C(C(C)C)C(=O)OC2C)c(N)c1=O` (configuration not stated) (I: TV[Aze][Sar][NMeV] / II: TV[Aze][Sar][NMeV]; ester I:1-I:C, II:1-II:C; linker I:N-II:N via Actinocin(9to1); configuration not given here), the T/C by setting is: (dose: 0.3 mg/kg/injection, schedule: Q04DX003 (ip), vehicle: saline + alcohol) 169 % of control; (dose: 0.45 mg/kg/injection, schedule: Q04DX003 (ip), vehicle: saline + alcohol) 163 % of control; (dose: 100.0 micrograms/kg/injection, schedule: Q01DX009 (ip), vehicle: saline + alcohol) 159 % of control; (dose: 150.0 micrograms/kg/injection, schedule: Q01DX009 (ip), vehicle: saline + alcohol) 161 % of control.
On to `OC1CCCC2CCCNC12` (configuration not stated) (tested in a mixture with another compound), for which the T/C is 90 % of control under setting [7], 95 % of control under setting [8] and 86 % of control under setting [9].
Take `O=S(=O)(c1ccccc1)N1CN2CCN(C2)C1`: the T/C reads like this: under setting [6], 89 % of control; under setting [7], 98 % of control; under setting [8], 99 % of control; under setting [9], 100 % of control; (dose: 200.0 mg/kg/injection, schedule: Q01DX009 (ip), vehicle: saline with Tween-80) 103 % of control.
For the molecule `CC1(C)N=C(N)N=C(N)N1c1ccc2ccccc2c1`, the T/C was 90 % of control under setting [6]; 87 % of control (dose: 22.0 mg/kg/injection, schedule: Q01DX009 (ip), vehicle: Klucel (hydroxypropylcellulose) (HPC)); 94 % of control under setting [7]; 91 % of control (dose: 33.0 mg/kg/injection, schedule: Q01DX009 (ip), vehicle: Klucel (hydroxypropylcellulose) (HPC)); 119 % of control (dose: 50.0 mg/kg/injection, schedule: Q01DX009 (ip), vehicle: Klucel (hydroxypropylcellulose) (HPC)); 98 % of control under setting [8].

These data come from PubChem BioAssay AID192 (DTP/NCI, 2004).
